{
  "source": "paper PMC8259857",
  "about": "“Anti-tubercular activity and molecular docking studies of indolizine derivatives targeting mycobacterial InhA enzyme” (Journal of Enzyme Inhibition and Medicinal Chemistry, 2021)",
  "data": [
    {"test_system": "MDR-MTB (rifampicin and isoniazid-resistant MTB strain)", "test": "microbe, parasite or virus in culture", "type": "cell-based, Mycobacterium tuberculosis", "conditions": "MIC MDR-MTB versus MIC H37Rv", "units": {"fold reduced MDR-MTB activity compared to H37Rv MTB strain": "fold"}, "values": [
      {"smiles": "CCOC(=O)c1cc(C(=O)c2ccc([N+](=O)[O-])cc2)n2ccccc12", "note": "[Compound 2d]", "fold reduced MDR-MTB activity compared to H37Rv MTB strain": 8},
      {"smiles": "CCOC(=O)c1c(C)c(C(=O)c2ccc(F)cc2)n2ccccc12", "note": "[Compound 3a]", "fold reduced MDR-MTB activity compared to H37Rv MTB strain": 8}
    ]},
    {"test_system": "MDR-MTB (rifampicin and isoniazid-resistant MTB strain)", "test": "microbe, parasite or virus in culture", "type": "cell-based, Mycobacterium tuberculosis", "conditions": "Mycobacterium tuberculosis, read-out: MIC MDR-MTB", "units": {"MIC": "µg/mL"}, "values": [
      {"smiles": "CCOC(=O)c1c(C(=O)OCC)c2ccccn2c1C(=O)c1ccc([N+](=O)[O-])cc1", "note": "[Compound 4c, Diethyl-3-(4-nitrobenzoyl)indolizine-1,2-dicarboxylate]", "MIC": 64},
      {"smiles": "CO[C@H]1/C=C/O[C@@]2(C)Oc3c(C)c(O)c4c(O)c(c(/C=N/N5CCN(C)CC5)c(O)c4c3C2=O)NC(=O)/C(C)=C\\C=C\\[C@H](C)[C@H](O)[C@@H](C)[C@@H](O)[C@@H](C)[C@H](OC(C)=O)[C@@H]1C", "note": "[Rifampicin, reference compound]", "MIC": "≥ 1"},
      {"smiles": "CCOC(=O)c1c(C(=O)OCC)c2ccccn2c1C(=O)c1ccc(F)cc1", "note": "[Compound 4a, Diethyl-3-(4-fluorobenzoyl)indolizine-1,2-dicarboxylate]", "MIC": 16},
      {"smiles": "CCOC(=O)c1cc(C(=O)c2ccc([N+](=O)[O-])cc2)n2ccccc12", "note": "[Compound 2d]", "MIC": 64},
      {"smiles": "CCOC(=O)c1c(C(=O)OCC)c2ccccn2c1C(=O)c1ccc(Cl)cc1", "note": "[Compound 4b, Diethyl-3-(4-chlorobenzoyl)indolizine-1,2-dicarboxylate]", "MIC": 16},
      {"smiles": "NNC(=O)c1ccncc1", "note": "[Isoniazid, reference compound]", "MIC": "≥ 0.2"},
      {"smiles": "CCOC(=O)c1c(C)c(C(=O)c2ccc(F)cc2)n2ccccc12", "note": "[Compound 3a]", "MIC": 32}
    ]},
    {"test_system": "MDR-MTB (rifampicin and isoniazid-resistant MTB strain)", "test": "microbe, parasite or virus in culture", "type": "cell-based, Mycobacterium tuberculosis", "conditions": "isolates resistant to rifampicin (1 μg/mL) and isoniazid (0.2 μg/mL); NA: not active at the concentration range (0.2–64 μg/mL)", "values": [
      {"smiles": "CCOC(=O)c1cc(C(=O)c2ccc(C)cc2)n2ccccc12", "note": "[Compound 2e]", "MIC MDR-MTB": "completely abolished the activity"},
      {"smiles": "CCOC(=O)c1cc(C(=O)c2ccc(C#N)cc2)n2ccccc12", "note": "[Compound 2f]", "MIC MDR-MTB": "completely abolished the activity"},
      {"smiles": "CCOC(=O)c1c(C)c(C(=O)c2ccc(Cl)cc2)n2ccccc12", "note": "[Compound 3b]", "MIC MDR-MTB": "inactive"},
      {"smiles": "CCOC(=O)c1c(C)c(C(=O)c2ccc([N+](=O)[O-])cc2)n2ccccc12", "note": "[Compound 3d]", "MIC MDR-MTB": "inactive"}
    ]}
  ]
}
